Measurements published in ChEMBL document CHEMBL4190325, “[…] Extracts as Tools to Balance Estrogenic and Chemopreventive Activities of Botanicals for Women's Health” (J Nat Prod, 2017).

Assays:
Estrogen receptor = biological target: T1, Estrogen receptor (Homo sapiens, UniProt P03372); assay: Estrogenic activity at estrogen receptor alpha in human Ishikawa cells assessed as induction of alkaline phosphatase activity using p-Nitrophenol phosphate as substrate pretreated for 96 hrs followed by substrate addition measured every 15 secs by scanning spectrophotometric analysis; format: cell-based
T1 sequence (P03372 whole entry): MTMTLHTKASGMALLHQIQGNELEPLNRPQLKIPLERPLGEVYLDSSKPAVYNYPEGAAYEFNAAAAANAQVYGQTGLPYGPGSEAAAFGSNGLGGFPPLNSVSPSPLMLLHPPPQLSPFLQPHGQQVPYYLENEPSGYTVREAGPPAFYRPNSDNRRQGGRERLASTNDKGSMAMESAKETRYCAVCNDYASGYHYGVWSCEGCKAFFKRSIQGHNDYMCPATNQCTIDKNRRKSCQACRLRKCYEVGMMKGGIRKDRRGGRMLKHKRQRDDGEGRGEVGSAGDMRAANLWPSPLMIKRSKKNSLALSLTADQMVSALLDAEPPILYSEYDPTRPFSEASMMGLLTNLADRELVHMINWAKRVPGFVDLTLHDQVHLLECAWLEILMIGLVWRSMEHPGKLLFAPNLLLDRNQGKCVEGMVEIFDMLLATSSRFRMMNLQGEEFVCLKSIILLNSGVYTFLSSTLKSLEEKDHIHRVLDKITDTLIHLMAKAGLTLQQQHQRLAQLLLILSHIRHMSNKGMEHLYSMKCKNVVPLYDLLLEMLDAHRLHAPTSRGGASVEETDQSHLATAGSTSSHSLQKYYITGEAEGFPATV

[1] = biological target: NAD(P)H dehydrogenase [quinone] 1 (Mus musculus) (UniProt Q64669)
Description: Induction of NQO1 activity in mouse Hepa1c1c7 cells after 48 hrs by MTT reduction assay

Ishikawa = assay: cells; conditions: Homo sapiens, 96 h
Description: Cytotoxicity against human Ishikawa cells after 96 hrs by SRB assay

cells = conditions: Mus musculus, Hepa-1c1c7, 48 h
Description: Cytotoxicity against mouse Hepa1c1c7 cells after 48 hrs by crystal violet staining based assay

NAD(P)H dehydrogenase [quinone] 1 (Mus musculus), sequence (Q64669 whole entry): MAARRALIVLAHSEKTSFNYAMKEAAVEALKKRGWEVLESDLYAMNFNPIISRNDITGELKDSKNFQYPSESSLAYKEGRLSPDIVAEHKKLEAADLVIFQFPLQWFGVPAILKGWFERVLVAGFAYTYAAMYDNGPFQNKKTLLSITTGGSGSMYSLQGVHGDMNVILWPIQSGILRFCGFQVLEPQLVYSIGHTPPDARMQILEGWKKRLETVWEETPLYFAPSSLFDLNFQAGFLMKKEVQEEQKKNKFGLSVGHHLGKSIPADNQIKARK

| Compound | EC50 (Estrogen receptor; ishikawa) | CD [1] [µM] | IC50 (Ishikawa) [µM] | IC50 (cells) [µM] | EC50 (Estrogen receptor; read-out: EC50) [µM] |
| --- | --- | --- | --- | --- | --- |
| COc1cc(O)c(CC=C(C)C)c(O)c1C(=O)/C=C/c1ccc(O)cc1 [XANTHOHUMOL] | Not Active | 1.3 | 4.2 | 17.5 |  |
| CC(C)=CCc1c(O)cc(O)c2c1O[C@H](c1ccc(O)cc1)CC2=O |  | > 30 | 19.1 | > 20 |  |
| CC(C)=CCc1c(O)cc2c(c1O)C(=O)CC(c1ccc(O)cc1)O2 (stereo unspecified) |  | > 30 | > 5 | > 20 | 0.4 |
| COc1cc(O)c(CC=C(C)C)c2c1C(=O)CC(c1ccc(O)cc1)O2 (stereo unspecified) [ISOXANTHOHUMOL] |  | > 50 | 24.9 | 30.7 | 1.4 |
| O=c1cc(-c2ccc(Br)cc2)oc2ccccc12 |  |  |  | 0.7 to 166 |  |
